Measured values as given in paper PMC6149849, “Cymantrenyl-Nucleobases: Synthesis, Anticancer, Antitrypanosomal and Antimicrobial Activity Studies” (Molecules : A Journal of Synthetic Chemistry and Natural …, 2017).
Like-named read-outs stand apart in the source and are kept apart here.

Key:
[1] = test system: SKOV-3 (ovarian adenocarcinoma); test: MTT cytotoxicity assay, SKOV-3; type: cell-based, human
Description: (§3) Anticancer activity of cymantrenes was determined using a panel of human cancer cell lines that were derived from solid tumors. […] The inhibitory effect of cymantrene derivatives on cell proliferation and growth was determined based on survival curves and was expressed as IC50 values (concentration required to achieve a 50% decrease in cell viability when compared to the viability of untreated control cells) calculated using GraphPad Prism 4.02 software for Windows (GraphPad Software, San Diego, CA, USA). Cell viability was determined by the MTT microplate spectrophotometric cytotoxicity test.
(§4) Cells were grown as a monolayer in DMEM growth medium, supplemented with 10% FBS, penicillin (10 U/mL) and streptomycin (50 μg/mL), under standard conditions (37 °C, 5% CO2 and 95% air, 100% humidity) and periodically checked for Mycoplasma contamination.
(§5) The cytotoxicity of cymantrene derivatives was evaluated by the MTT microplate methods as described elsewhere [67] by incubating the cells with increasing concentrations of tested compounds for 24 h. Briefly, 0.1 mL of logarithmically growing cells were seeded in a 96-well microplate (5 × 10^4 cells/well) a day before the experiments and after 24 h of culture, tested compounds, dissolved in DMSO, and diluted in culture medium, were added. […] After further incubation for 24 h, the medium was replaced with fresh medium and the cells were allowed to grow for additional 48 h. Then, the medium was aspirated and 0.05 mL of MTT (final concentration of 5 mg/mL medium) added to each well, and the cells were incubated for further 4 h. The absorbance of the product, resulting from the MTT reduction, was read with a microplate reader at 545 nm. The percentage of viable cells was calculated by comparing the absorbance of treated cells with that of the untreated control cells (taken as 100%). The IC50 concentration of each compound was calculated from the cell survival curves using GraphPad Prism 4.02 software for Windows (GraphPad Software, San Diego, CA, USA).

[2] = test system: MCF-7 (hormone-responsive breast adenocarcinoma); test: MTT cytotoxicity assay, MCF-7; type: cell-based, human
Description: as §3, §4, §5

[3] = test system: HepG2 (hepatocellular carcinoma); test: MTT cytotoxicity assay, HepG2; type: cell-based, human
Description: as §3, §4, §5

SKOV-3 cells = test: Autophagy (acidic vesicular organelles, AVOs), acridine orange staining; type: cell-based, human; settings: SKOV-3, IC50 concentrations 24 h, then 0, 24 or 48 h drug-free
Description: To determine the mode of cell death that was triggered by cymantrene derivatives, appropriately stained SKOV-3 cells were evaluated for morphological changes using fluorescence microscopy. For evaluation of apoptosis and autophagy, cells were stained with Hoechst 33258/propidium iodide to distinguish between live, apoptotic and necrotic cells and reveal condensed chromatin and apoptotic bodies (a hallmark of apoptosis), and with acridine orange to detect the development of acidic vesicular organelles (AVOs—a hallmark of autophagy).
One day prior to the experiments, cells were seeded at the appropriate density into 35 mm diameter dishes. […] At the end of incubation, the medium was aspirated, the cell monolayer was washed twice with pre-warmed PBS, and fresh medium was added. The cells were cultured in drug-free medium for an additional 24 or 48 h to enable them to recover after the exposure to the compounds and to repair any induced damages.
The ability of tested compounds to induce autophagosome formation inside cells (the process associated with the induction of autophagy) was evaluated by microscopic examination of the morphology of cells stained with acridine orange (AO).

[4] = test system: S. aureus ATCC 29213 (MSSA); test: Antibacterial liquid microdilution (CLSI M07-A8); type: cell-based, Staphylococcus aureus; settings: 18 to 24 h
Description: (§1) Organometallic compounds play an increasingly important role in the search for new antibacterial agents. We, therefore, thought to investigate also the bactericidal activity of the newly synthesized cymantrenes 1–7, compound C and CymH. The antibacterial activity of the compounds was tested against Gram-positive methicillin-sensitive Staphylococcus aureus (MSSA), methicillin-resistant S. aureus (MRSA), vancomycin-intermediate S. aureus (VISA), S. epidermidis, and Gram-negative Escherichia coli bacterial strains, and expressed as minimal inhibitory concentration (MIC) values (Table 3).
(§2) The antibacterial activity of CymH, 1–7 and C and the reference drugs penicillin G and polymyxin B was tested by the liquid microdilution method under standard conditions using twofold dilution series, as described in the Clinical and Laboratory Standards Institute (CLSI), reference method M07-A8, and expressed as minimal inhibitory concentration (MIC) values. A panel of Gram-positive bacterial strains, S. aureus ATCC® 29213 (sensitive to methicillin, (MSSA)), S. aureus ATCC® 43300 (resistant to methicillin, (MRSA)), S. aureus ATCC 700787™ (intermediate to vancomycin, (VISA)), and S. epidermidis ATCC 12228™, and one Gram-negative, strain E. coli ATCC BAA-198™ (ESBL) were used. In addition, four clinical isolates of S. aureus (MSSA and MRSA) and two clinical isolates of S. epidermidis that were collected from different patients at the Medical University of Warsaw, Poland, were also tested. The bacterial cells were cultivated on tryptic soy agar (TSA) and nutrient agar (NA), according to ATCC recommendations. All of the strains were incubated at 37 °C. Tested compounds were dissolved in DMSO and then serially diluted twofold with cation-adjusted Mueller-Hinton broth (CAMHB). Then, 95 µL of the dilutions were dispensed into microdilution sterile plates (Mar-Four), followed by the addition of 5 µL of bacteria inoculum containing 5 × 10^4 CFU/mL. The final concentrations of the compounds ranged from 512 to 2 µg/mL. Each compound was tested in triplicate, and Penicillin G (8–0.15 µg/mL) and Polymyxin B (256–0.0625 µg/mL) were used as controls. The plates were incubated at 37 °C for 18 to 24 h depending on the bacterial strain. Thereafter, the absorbance was measured at λ = 540 nm and λ = 595 nm using a Spectrostar Omega microplate reader (BMG Labtech, Offenburg, Germany). The MIC value was defined as the lowest concentration of a compound that reduced the growth by 100%.

[5] = test system: S. aureus ATCC 43300 (MRSA); test: Antibacterial liquid microdilution (CLSI M07-A8); type: cell-based, Staphylococcus aureus; settings: 18 to 24 h
Description: as §1, §2

[6] = test system: S. aureus ATCC 700787 (VISA); test: Antibacterial liquid microdilution (CLSI M07-A8); type: cell-based, Staphylococcus aureus; settings: 18 to 24 h
Description: as §1, §2

[7] = test system: E. coli ATCC BAA-198 (ESBL); test: Antibacterial liquid microdilution (CLSI M07-A8); type: cell-based, Escherichia coli; settings: 18 to 24 h
Description: as §1, §2

[8] = 24 h incubation, MTT, means ± SEM, read-out: cytotoxicity IC50, SKOV-3
[9] = 24 h incubation, MTT, means ± SEM, read-out: cytotoxicity IC50, MCF-7
[10] = 24 h incubation, MTT, means ± SEM, read-out: cytotoxicity IC50, HepG2

Row | Compound | IC50 [1] | IC50 [2] | IC50 [3] | induction of autophagy (cells containing AVOs) (SKOV-3 cells) | MIC, S. aureus ATCC 29213 (MSSA) [4] | MIC, S. aureus ATCC 43300 (MRSA) [5] | MIC, S. aureus ATCC 700787 (VISA) [6] | MIC, E. coli ATCC BAA-198 [7] | IC50 [1, 8] | IC50 [2, 9] | IC50 [3, 10]
1 | COC(CCn1cnc2c(N(C)C)ncnc21)[C]12[CH]3[CH]4[CH]5[CH]1[Mn]4532.[C-]#[O+].[C-]#[O+].[C-]#[O+] (racemic) [Compound 6] | 77.1 ± 3.86 µM | 111 ± 3.57 µM | 86.9 ± 2.34 µM | greatest autophagic changes | >512 µg/mL | >512 µg/mL | >512 µg/mL | >512 µg/mL |  |  | 
2 | Nc1ncnc2c1ncn2CCC(O)[C]12[CH]3[CH]4[CH]5[CH]1[Mn]4532[P](c1ccccc1)(c1ccccc1)c1ccccc1.[C-]#[O+].[C-]#[O+] (racemic) [Compound 5] |  |  |  | Less induction of autophagy | >256 µg/mL | >256 µg/mL | >256 µg/mL | >256 µg/mL | 63.8 ± 3.19 µM | 102 ± 1.11 µM | 106 ± 2.31 µM
3 | O=[C]=[Mn](=[C]=O)(=[C]=O)[CH]1C=CC=C1 [CymH, tricarbonyl(η^5-cyclopentadienyl)manganese, reference compound] |  |  |  | greatest autophagic changes | >512 µg/mL | >512 µg/mL | >512 µg/mL | >512 µg/mL | 121 ± 3.05 µM | 86 ± 1.3 µM | 74.7 ± 3.73 µM
4 | COC(CCn1cc(F)c(=O)n(C)c1=O)[C]12[CH]3[CH]4[CH]5[CH]1[Mn]4532.[C-]#[O+].[C-]#[O+].[C-]#[O+] (racemic) [Compound 4] | > 150 µM | > 150 µM | > 150 µM | Less induction of autophagy | >512 µg/mL | >512 µg/mL | >512 µg/mL | >512 µg/mL |  |  | 
5 | O=c1[nH]c(=O)n(CCC(O)[C]23[CH]4[CH]5[CH]6[CH]2[Mn]5643[P](c2ccccc2)(c2ccccc2)c2ccccc2)cc1F.[C-]#[O+].[C-]#[O+] (racemic) [Compound 3] |  |  |  | very little autophagic activity | >256 µg/mL | >256 µg/mL | >256 µg/mL | >256 µg/mL | 53 ± 2.65 µM | 57.8 ± 2.89 µM | 65.8 ± 3.29 µM
6 | O=C(CCn1cc(F)c(=O)[nH]c1=O)[C]12[CH]3[CH]4[CH]5[CH]1[Mn]4532.[C-]#[O+].[C-]#[O+].[C-]#[O+] (stereo not drawn) [Compound 1] | 75.1 ± 3.76 µM | 70.5 ± 2.52 µM | 114 ± 2.72 µM | Less induction of autophagy | 64 µg/mL | 32 µg/mL | 32 µg/mL | >512 µg/mL |  |  | 
7 | CCC(=O)[C]12[CH]3[CH]4[CH]5[CH]1[Mn]4532.[C-]#[O+].[C-]#[O+].[C-]#[O+] (stereo not drawn) [Compound 7, propionylocymantrene] | 69.8 ± 3.49 µM | > 150 µM | 110 ± 2.48 µM | greatest autophagic changes | >512 µg/mL | >512 µg/mL | >512 µg/mL | >512 µg/mL |  |  | 
8 | Nc1ncnc2c1ncn2CCC(O)[C]12[CH]3[CH]4[CH]5[CH]1[Mn]45321[P](c2ccccc2)(c2ccccc2)CC[P]1(c1ccccc1)c1ccccc1.[C-]#[O+] (racemic) [Compound C] |  | 104 ± 1.19 µM | 66.6 ± 3.33 µM | greatest autophagic changes | 32 µg/mL | 32 µg/mL | 32 µg/mL | >128 µg/mL |  |  | 
